Data taken from patent US11084814B2, “Pyrido[3, 4-d]pyrimidine derivative and pharmaceutically acceptable salt thereof” (Teijin Pharma Limited, priority 2016, dated 2021).

Key:
CDK4/cyclin D3 = molecular target: T1, CDK4/cyclin D3 (Homo sapiens, UniProt P11802); experiment: Human CDK4/cyclin D3 inhibitory activity (QS S Assist CDK4/Cyclin D3_FP Kit, IMAP fluorescent polarization); type: biochemical; conditions: read-out: CDK4 Activity symbol
T1 construct: purchased Carna Biosciences, Inc. QS S Assist CDK4/Cyclin D3_FP Kit
In short: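 Kinase reactions used kit CDK4/cyclin D3 at 12.5–25 ng/well with the kit ATP/substrate/metal mix in 20 mM HEPES (pH 7.4), 0.01% Tween20 and 2 mM DTT, run 45 min at room temperature. Phosphorylation was detected by IMAP fluorescence polarization (ex 485/em 535 nm) after 30 min binding in the dark. IC50 was fitted from percent inhibition against DMSO controls with and without enzyme.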

CDK2/cyclin A2 = molecular target: T2, CDK2/cyclin A2 (Homo sapiens, UniProt P24941); experiment: Human CDK2/cyclin A2 inhibitory activity (QS S Assist CDK2/Cyclin A2_FP Kit, IMAP fluorescent polarization); type: biochemical; conditions: read-out: CDK2 Activity symbol
T2 construct: purchased Carna Biosciences, Inc. QS S Assist CDK2/Cyclin A2_FP Kit
In short: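 Kit CDK2/cyclin A2 (2.5 ng/well) was reacted with kit ATP/substrate/metal in 20 mM HEPES pH 7.4, 0.01% Tween 20 and 2 mM DTT for 60 min at room temperature. IMAP binding reagent was added for 30 min, then fluorescence polarization was read at 485/535 nm. IC50 came from dose-response fitting of percent inhibition.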

T1 sequence (P11802 whole entry): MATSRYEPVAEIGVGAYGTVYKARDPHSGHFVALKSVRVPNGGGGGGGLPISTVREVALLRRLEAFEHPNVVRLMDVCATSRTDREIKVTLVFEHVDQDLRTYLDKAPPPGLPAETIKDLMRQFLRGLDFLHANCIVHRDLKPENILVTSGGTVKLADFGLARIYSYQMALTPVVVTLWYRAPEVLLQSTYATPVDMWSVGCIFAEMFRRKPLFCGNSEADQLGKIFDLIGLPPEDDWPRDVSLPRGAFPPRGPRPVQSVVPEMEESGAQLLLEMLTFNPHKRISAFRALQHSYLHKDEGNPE
T1 sequence (P30281 whole entry partner): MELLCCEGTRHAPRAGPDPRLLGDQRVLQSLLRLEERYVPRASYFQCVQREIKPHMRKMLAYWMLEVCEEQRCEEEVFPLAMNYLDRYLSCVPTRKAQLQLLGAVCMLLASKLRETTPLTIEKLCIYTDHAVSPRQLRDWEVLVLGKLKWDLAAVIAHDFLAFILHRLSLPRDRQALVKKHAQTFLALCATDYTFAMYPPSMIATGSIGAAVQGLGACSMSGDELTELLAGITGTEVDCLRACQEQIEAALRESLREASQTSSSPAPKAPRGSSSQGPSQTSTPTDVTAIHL

SMILES	IC50 (CDK4/cyclin D3) [nM]	IC50 (CDK2/cyclin A2) [nM]
C[C@@H](O)c1cc2cnc(Nc3ccc(CN4CCN(CCO)CC4)cn3)nc2c(N2CCOC[C@@H]2C)n1 [Compound 293]	10 to 100	≥ 100
COC(=O)c1cc2cnc(Nc3ccc(N4CCNCC4)cn3)nc2c(N2CCCCC2)n1 [Compound 25]	10 to 100	≥ 100
C[C@@H](O)c1cc2cnc(Nc3ccc4c(n3)CCN(C(=O)CNC3COC3)C4)nc2c(N2C3CCC2CC3)n1 [Compound 234]	10 to 100	≥ 100
C[C@@H](O)c1cc2cnc(Nc3ccc(O[C@H]4CCN(CCO)C[C@@H]4F)cn3)nc2c(N2CCCCC2)n1 [Compound 131]	10 to 100	≥ 100
C[C@@H](O)c1cc2cnc(Nc3ccc4c(n3)CCN(C(=O)CN3CC5(CC(O)C5)C3)C4)nc2c(N2C3CCC2CC3)n1 [Compound 267]	< 10	≥ 100
C[C@@H](O)c1cc2cnc(Nc3ccc4c(n3)CCN(C(=O)CN3CCN(C)CC3)C4)nc2c(N2C3CCC2CC3)n1 [Compound 264]	< 10	≥ 100
C[C@@H](O)c1cc2cnc(Nc3ccc(CN4CCN(CCO)CC4)cn3)nc2c(N2CCS(=O)(=O)CC2)n1 [Compound 85]	10 to 100	≥ 100
C[C@@H](O)c1cc2cnc(Nc3ccc4c(n3)CCN(C(=O)CN3CCCC3)C4)nc2c(N2C3CCC2CC3)n1 [Compound 228]	< 10	≥ 100
C[C@@H](O)c1cc2cnc(Nc3ccc4c(n3)CCN(C(=O)CN3CC5(CN(C)C5)C3)C4)nc2c(N2C3CCC2CC3)n1 [Compound 265]	< 10	≥ 100
CC(C)(O)c1cc2cnc(Nc3ccc(N4CCNCC4)cn3)nc2c(N2CCOCC2)n1 [Compound 37]	10 to 100	≥ 100
c1cc(Nc2ncc3cc(C4CCOC4)nc(N4C5CCC4CC5)c3n2)ncc1CN1CCNCC1 (stereo not shown) [Compound 205]	< 10	≥ 100
C[C@@H](O)c1cc2cnc(Nc3ccc4c(n3)CCN(C(=O)CN3CCC(O)CC3)C4)nc2c(N2C3CCC2CC3)n1 [Compound 262]	< 10	≥ 100
C[C@@H](O)c1cc2cnc(Nc3ccc(CN4CCN(CCO)CC4)cn3)nc2c(N2CCC[C@@H]2C)n1 [Compound 98]	10 to 100	≥ 100
C[C@@H](O)c1cc2cnc(Nc3ccc4c(n3)CCN(CC3COC3)C4)nc2c(N2CCCCC2)n1 [Compound 197]	10 to 100	≥ 100
C[C@@H](O)c1cc2cnc(Nc3ccc4c(n3)CCN(C(=O)[C@H]3CCCN3C)C4)nc2c(N2C3CCC2CC3)n1 [Compound 224]	< 10	≥ 100
CN(C)C(=O)c1cc2cnc(Nc3ccc(N4CCNCC4)cn3)nc2c(N2CCCCC2)n1 [Compound 27]	10 to 100	≥ 100
C[C@@H](O)c1cc2cnc(Nc3ccc4c(n3)CCN(C(=O)CN3CCN(CCO)CC3)C4)nc2c(N2C3CCC2CC3)n1 [Compound 263]	< 10	≥ 100
C[C@@H](O)c1cc2cnc(Nc3ccc(N4CCNCC4=O)cn3)nc2c(N2C3CCCC2CC3)n1 [Compound 281]	< 10	≥ 100
CC(F)(F)c1cc2cnc(Nc3ccc(N4CCNCC4)cn3)nc2c(N2CCOCC2)n1 [Compound 36]	≥ 100	≥ 100
C[C@@H](O)c1cc2cnc(Nc3ccc4c(n3)CCN(C3CN(C)C3)C4)nc2c(N2C3CCC2CC3)n1 [Compound 240]	< 10	≥ 100
c1cc(N2CCNCC2)nnc1Nc1ncc2cc(C3CCOC3)nc(N3C4CCC3CC4)c2n1 (stereo not shown) [Compound 207]	< 10	≥ 100
C[C@@H](O)c1cc2cnc(Nc3ccc4c(n3)CCN(C(=O)[C@H]3C[C@@H](O)CN3)C4)nc2c(N2CCCCC2)n1 [Compound 213]	< 10	≥ 100
C[C@@H](O)c1cc2cnc(Nc3ccc(CN4CCN(CCO)CC4)cn3)nc2c(N2CC[C@H](F)C2)n1 [Compound 181]	10 to 100	≥ 100

The next lines start with the values.

IC50 (CDK4/cyclin D3) [nM]	IC50 (CDK2/cyclin A2) [nM]	SMILES
< 10	≥ 100	C[C@@H](O)c1cc2cnc(Nc3ccc4c(n3)CCN(C(=O)CN3CCC3)C4)nc2c(N2CCCCC2)n1 [Compound 270]
< 10	≥ 100	C[C@@H](O)c1cc2cnc(Nc3ccc(C(=O)N4CCN(C)CC4)cn3)nc2c(N2CCC(F)CC2)n1 [Compound 320]
< 10	≥ 100	CN1CCN(c2ccc(Nc3ncc4cc(CO)nc(N5CCCCC5)c4n3)nc2)CC1 [Compound 2]
< 10	≥ 100	C[C@@H](O)c1cc2cnc(Nc3ccc(OC4CCNCC4)cn3)nc2c(N2CCCCC2)n1 [Compound 164]
< 10	≥ 100	CC(O)c1cc2cnc(Nc3ccc(CN4CCN(CCO)CC4)cn3)nc2c(N2CCOCC2C)n1 (stereo not shown) [Compound 294]
< 10	≥ 100	C[C@@H](O)c1cc2cnc(Nc3ccc(CN4CCN(CCO)CC4)cn3)nc2c(N2CCC(O)CC2)n1 [Compound 106]
< 10	≥ 100	C[C@@H](O)c1cc2cnc(Nc3ccc4c(n3)CCN(S(=O)(=O)C3CCNCC3)C4)nc2c(N2CCCCC2)n1 [Compound 163, (R)-1-(8-(piperidin-1-yl)-2-((6-(piperidin-4-ylsulfonyl)-5,6,7,8-tetrahydro-1,6-naphthyridin-2-yl)amino)pyrido[3,4-d]pyrimidin-6-yl)ethanol]
< 10	10 to 100	C[C@@H](O)c1cc2cnc(Nc3ccc(CN4CCN(CCO)CC4)cn3)nc2c(N2CCCC2(C)C)n1 [Compound 75]
< 10	10 to 100	CC(O)c1cc2cnc(Nc3ccc(CN4CCN(CCO)CC4)cn3)nc2c(N2CCCC2C)n1 (stereo not shown) [Compound 83]
< 10	≥ 100	C[C@@H](O)c1cc2cnc(Nc3ccc(C(=O)N4CC[C@H](N(C)C)C4)cn3)nc2c(N2CCCCC2)n1 [Compound 313]
< 10	≥ 100	CC(O)c1cc2cnc(Nc3ccc(N4CCNCC4=O)cn3)nc2c(N2CCCCC2C)n1 (stereo not shown) [Compound 303]
< 10	≥ 100	C[C@@H](O)c1cc2cnc(Nc3ccc(CN4CCN(CCO)CC4)cn3)nc2c(N2CCC(C)(C)C2)n1 [Compound 102]
< 10	≥ 100	C[C@@H](O)c1cc2cnc(Nc3ccc(C(=O)N4CCC(N(C)C)CC4)cn3)nc2c(N2CCCCC2)n1 [Compound 315]
< 10	≥ 100	CN1CCN(c2ccc(Nc3ncc4cc(CO)nc(C5CCCCC5)c4n3)nc2)CC1 [Compound 5]
< 10	≥ 100	C[C@@H](O)c1cc2cnc(Nc3ccc4c(n3)CN(CCO)C4)nc2c(N2CCCCC2)n1 [Compound 201]
< 10	≥ 100	Cc1c(CO)nc(N2CCOCC2)c2nc(Nc3ccc(N4CCNCC4)cn3)ncc12 [Compound 33]
< 10	≥ 100	O=C1CNCCN1c1ccc(Nc2ncc3cc(CCO)nc(N4CCCCC4)c3n2)nc1 [Compound 93]

IC50 (CDK4/cyclin D3) [nM]	IC50 (CDK2/cyclin A2) [nM]	SMILES
< 10	≥ 100	CC(O)c1cc2cnc(Nc3ccc(OC4CCN(CCO)CC4)cn3)nc2c(N2C3CCC2CC3)n1 (stereo not shown) [Compound 218]
< 10	≥ 100	C[C@@H](O)c1cc2cnc(Nc3ccc(CN4CCN(C)C[C@@H]4C)cn3)nc2c(N2CCCCC2)n1 [Compound 186]
< 10	≥ 100	CC(O)c1cc2cnc(Nc3ccc(CN4CCN(C)CC4)cn3)nc2c(N2CC3CCC(C2)O3)n1 (stereo not shown) [Compound 321]
< 10	≥ 100	OCCc1cc2cnc(Nc3ccc4c(n3)CCN(CCO)C4)nc2c(N2CCCCC2)n1 [Compound 109]
< 10	≥ 100	C[C@H]1CCN(c2nc([C@@H](C)O)cc3cnc(Nc4ccc(CN5CCN(C)CC5)cn4)nc23)C1 [Compound 139]
< 10	≥ 100	C[C@H](O)Cc1cc2cnc(Nc3ccc(N4CCNCC4=O)cn3)nc2c(N2CCCCC2)n1 [Compound 203]
< 10	≥ 100	C[C@@H](O)c1cc2cnc(Nc3ccc4c(n3)CCN(C(=O)[C@H]3CCCCN3)C4)nc2c(N2CCCCC2)n1 [Compound 211]
< 10	≥ 100	C[C@@H](O)c1cc2cnc(Nc3ccc(CN4CCN(CCO)CC4)cn3)nc2c(N2CCC(C(=O)O)CC2)n1 [Compound 76]
< 10	≥ 100	C[C@@H](O)c1cc2cnc(Nc3ccc(CN4CCN(C)CC4)cn3)nc2c(N2CCCOCC2)n1 [Compound 177]
< 10	≥ 100	Cc1nc(Nc2ncc3cc([C@@H](C)O)nc(N4CCOC[C@H]4C)c3n2)ccc1N1CCNCC1 [Compound 297]
< 10	≥ 100	C[C@@H](O)c1cc2cnc(Nc3ccc(C(=O)N4CC[C@@H](N(C)C)C4)cn3)nc2c(N2CCCCC2)n1 [Compound 312]
< 10	≥ 100	C[C@@H](O)c1cc2cnc(Nc3ccc(N4CCNCC4=O)cn3)nc2c(N2CCCC2)n1 [Compound 51]
< 10	≥ 100	C[C@@H](O)c1cc2cnc(Nc3ccc(CN4CCN(CCO)CC4)cn3)nc2c(N2CC3CC3C2)n1 (stereo partly shown) [Compound 104]
< 10	≥ 100	Cc1nc(Nc2ncc3cc([C@@H](C)O)nc(N4CCCCC4)c3n2)ccc1N1CCNCC1=O [Compound 260]
< 10	≥ 100	C[C@H]1CCN(c2nc([C@@H](C)O)cc3cnc(Nc4ccc(N5CCNCC5=O)cn4)nc23)C1 [Compound 257]
< 10	≥ 100	c1cc(Nc2ncc3cc(C4CCOC4)nc(N4CCCCC4)c3n2)ncc1CN1CCNCC1 (stereo not shown) [Compound 206]
